Data taken from ChEMBL document CHEMBL1201862, “PubChem BioAssay data set” (2004).
Active and inactive are the calls of the source.

Legend:
Large T antigen = Large T antigen (Simian virus 40, UniProt P03070); assay type: functional, Betapolyomavirus macacae;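 further: Confirmatory-stage PubChem screen for compounds that inhibit SV40 T antigen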
[1] = target: T1, DNA repair protein RAD52 homolog (Homo sapiens, UniProt P43351); assay type: functional, biochemical
T1 sequence (P43351 whole entry): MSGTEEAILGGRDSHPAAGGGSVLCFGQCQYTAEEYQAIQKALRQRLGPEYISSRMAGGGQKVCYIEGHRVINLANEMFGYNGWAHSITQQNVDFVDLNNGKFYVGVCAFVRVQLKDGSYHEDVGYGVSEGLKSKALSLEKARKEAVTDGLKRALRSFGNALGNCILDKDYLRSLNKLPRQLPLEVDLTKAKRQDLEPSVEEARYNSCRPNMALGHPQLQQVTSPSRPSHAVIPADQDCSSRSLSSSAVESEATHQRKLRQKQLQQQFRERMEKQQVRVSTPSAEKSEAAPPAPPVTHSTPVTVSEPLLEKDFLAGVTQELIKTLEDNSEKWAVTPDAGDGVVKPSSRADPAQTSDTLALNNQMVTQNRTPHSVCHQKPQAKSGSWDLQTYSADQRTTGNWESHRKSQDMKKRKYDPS

[2] = target: T2, Replicative DNA helicase DnaB (Mycobacterium tuberculosis, UniProt P9WMR3); assay: DnaB intein splicing inhibitors, dose response, biochemical, cell-free fluorescence (AID 449749); assay type: functional
T2 sequence (P9WMR3 whole entry): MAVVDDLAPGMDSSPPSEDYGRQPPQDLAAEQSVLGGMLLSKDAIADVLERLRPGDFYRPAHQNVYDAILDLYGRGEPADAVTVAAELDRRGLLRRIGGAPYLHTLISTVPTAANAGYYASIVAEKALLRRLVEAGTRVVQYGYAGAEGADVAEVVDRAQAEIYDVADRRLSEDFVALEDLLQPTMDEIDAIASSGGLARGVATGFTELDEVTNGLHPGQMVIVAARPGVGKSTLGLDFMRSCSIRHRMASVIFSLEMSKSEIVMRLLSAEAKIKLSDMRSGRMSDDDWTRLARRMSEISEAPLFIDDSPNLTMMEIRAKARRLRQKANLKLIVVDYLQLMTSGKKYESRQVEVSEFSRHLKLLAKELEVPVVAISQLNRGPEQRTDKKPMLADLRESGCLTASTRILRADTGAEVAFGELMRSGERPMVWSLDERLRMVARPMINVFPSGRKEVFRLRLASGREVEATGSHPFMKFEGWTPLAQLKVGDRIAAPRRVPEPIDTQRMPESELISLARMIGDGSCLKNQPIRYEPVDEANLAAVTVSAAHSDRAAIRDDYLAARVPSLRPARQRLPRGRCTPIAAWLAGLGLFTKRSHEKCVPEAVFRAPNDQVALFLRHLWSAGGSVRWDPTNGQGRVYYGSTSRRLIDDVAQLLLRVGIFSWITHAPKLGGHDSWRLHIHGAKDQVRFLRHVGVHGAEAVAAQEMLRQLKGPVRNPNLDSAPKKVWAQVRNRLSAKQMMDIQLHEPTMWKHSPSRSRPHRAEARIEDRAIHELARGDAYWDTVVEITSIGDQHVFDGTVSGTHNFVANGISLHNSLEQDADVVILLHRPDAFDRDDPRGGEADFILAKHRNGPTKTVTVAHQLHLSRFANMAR

Protein RecA = target: T3, Protein RecA (Mycobacterium tuberculosis, UniProt P9WHJ3); assay: Fluorescence Cell-Free Homogeneous Dose Retest to Identify Inhibitors of RecA-Intein Splicing Activity. [Related pubchem assays (depositor defined):AID2097, AID2223, AID489010, AID492950]; assay type: functional
T3 sequence (P9WHJ3 whole entry): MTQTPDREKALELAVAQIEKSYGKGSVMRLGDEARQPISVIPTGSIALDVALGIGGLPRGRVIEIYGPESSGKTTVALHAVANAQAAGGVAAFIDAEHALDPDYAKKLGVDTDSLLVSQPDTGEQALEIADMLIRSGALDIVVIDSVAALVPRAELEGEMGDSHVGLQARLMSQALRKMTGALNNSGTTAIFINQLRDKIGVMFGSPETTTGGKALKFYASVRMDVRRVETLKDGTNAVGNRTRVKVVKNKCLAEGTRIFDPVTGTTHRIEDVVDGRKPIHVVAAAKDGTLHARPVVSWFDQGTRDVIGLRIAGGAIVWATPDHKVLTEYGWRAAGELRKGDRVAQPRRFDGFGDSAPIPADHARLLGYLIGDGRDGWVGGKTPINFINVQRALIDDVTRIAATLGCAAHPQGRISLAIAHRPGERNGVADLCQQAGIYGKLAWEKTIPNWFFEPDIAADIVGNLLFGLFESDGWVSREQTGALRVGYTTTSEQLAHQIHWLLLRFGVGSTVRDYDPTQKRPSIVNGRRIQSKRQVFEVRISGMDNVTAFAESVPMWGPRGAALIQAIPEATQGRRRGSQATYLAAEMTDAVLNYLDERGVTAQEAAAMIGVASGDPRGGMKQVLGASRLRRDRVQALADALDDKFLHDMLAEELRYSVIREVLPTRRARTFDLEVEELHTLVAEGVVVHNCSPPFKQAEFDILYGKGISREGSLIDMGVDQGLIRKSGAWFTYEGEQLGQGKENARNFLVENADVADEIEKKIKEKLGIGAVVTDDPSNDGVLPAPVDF

INS1 = assay: beta cell apoptosis inhibitors, cytokine rescue, dose response, luminescence, retest (AID 449756); assay type: functional, cell-based; details: Rattus norvegicus;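 further: cell death triggered by IL-1 beta plus TNF-alpha plus IFN-gamma mixture; protective hits raise ATP signal compared with cytokine alone wells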
Nonstructural protein 1 = Nonstructural protein 1 (Influenza A virus, UniProt Q194T2); assay type: functional, Influenza A virus (A/California/07/2009(H1N1))
[3] = target: T4, Ubiquitin-conjugating enzyme E2 N (Homo sapiens, UniProt P61088); assay type: functional;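 further: Dose-response confirmation in a TR-FRET assay detecting UBC13-driven polyubiquitin chain formation, inhibition measured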
T4 sequence (P61088 whole entry): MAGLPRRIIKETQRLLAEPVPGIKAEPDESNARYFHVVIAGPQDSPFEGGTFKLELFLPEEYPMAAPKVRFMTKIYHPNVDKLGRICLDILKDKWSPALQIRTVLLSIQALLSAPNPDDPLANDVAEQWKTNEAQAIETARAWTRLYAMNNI

[4] = target: T5, Short transient receptor potential channel 4 (Mus musculus, UniProt Q9QUQ5); assay: mouse TRPC4 channel inhibitors, dose response, cell-based, HEK293 TRPC4/mu-opioid, Fluo-4 calcium (AID 434942); assay type: functional;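 further: potency of inhibitors blocking the TRPC4 calcium response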
T5 sequence (Q9QUQ5 whole entry): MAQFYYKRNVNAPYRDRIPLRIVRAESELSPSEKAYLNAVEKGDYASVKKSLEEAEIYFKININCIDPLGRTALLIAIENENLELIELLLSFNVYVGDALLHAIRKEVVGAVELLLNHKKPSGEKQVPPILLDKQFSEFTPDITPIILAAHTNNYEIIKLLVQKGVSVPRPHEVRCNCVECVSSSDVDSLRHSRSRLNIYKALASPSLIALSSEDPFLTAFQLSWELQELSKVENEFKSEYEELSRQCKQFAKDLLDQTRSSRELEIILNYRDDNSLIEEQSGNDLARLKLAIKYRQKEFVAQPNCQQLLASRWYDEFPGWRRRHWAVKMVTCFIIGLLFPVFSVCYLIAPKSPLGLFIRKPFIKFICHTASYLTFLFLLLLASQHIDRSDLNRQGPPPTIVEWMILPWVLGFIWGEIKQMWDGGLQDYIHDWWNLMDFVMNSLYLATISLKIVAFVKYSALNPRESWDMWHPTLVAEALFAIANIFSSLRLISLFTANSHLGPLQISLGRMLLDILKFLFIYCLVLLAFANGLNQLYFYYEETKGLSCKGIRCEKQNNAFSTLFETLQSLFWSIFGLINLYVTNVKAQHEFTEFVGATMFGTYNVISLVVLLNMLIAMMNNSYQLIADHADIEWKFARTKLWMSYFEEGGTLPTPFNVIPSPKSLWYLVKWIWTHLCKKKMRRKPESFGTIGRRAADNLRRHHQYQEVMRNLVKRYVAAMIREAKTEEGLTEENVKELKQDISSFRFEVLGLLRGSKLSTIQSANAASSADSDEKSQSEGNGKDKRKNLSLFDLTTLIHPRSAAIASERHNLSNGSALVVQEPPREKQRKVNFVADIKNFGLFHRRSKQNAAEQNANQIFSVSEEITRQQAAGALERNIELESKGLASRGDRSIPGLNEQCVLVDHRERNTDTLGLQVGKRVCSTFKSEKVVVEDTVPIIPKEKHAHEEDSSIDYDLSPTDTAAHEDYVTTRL

[5] = target: T6, DNA repair and recombination protein RAD54-like (Homo sapiens, UniProt Q92698); assay: inhibitors of human RAD54 branch migration, confirmation, biochemical, fluorescence, cherry-picked samples, dose series (AID 651657); assay type: functional
T6 sequence (Q92698 whole entry): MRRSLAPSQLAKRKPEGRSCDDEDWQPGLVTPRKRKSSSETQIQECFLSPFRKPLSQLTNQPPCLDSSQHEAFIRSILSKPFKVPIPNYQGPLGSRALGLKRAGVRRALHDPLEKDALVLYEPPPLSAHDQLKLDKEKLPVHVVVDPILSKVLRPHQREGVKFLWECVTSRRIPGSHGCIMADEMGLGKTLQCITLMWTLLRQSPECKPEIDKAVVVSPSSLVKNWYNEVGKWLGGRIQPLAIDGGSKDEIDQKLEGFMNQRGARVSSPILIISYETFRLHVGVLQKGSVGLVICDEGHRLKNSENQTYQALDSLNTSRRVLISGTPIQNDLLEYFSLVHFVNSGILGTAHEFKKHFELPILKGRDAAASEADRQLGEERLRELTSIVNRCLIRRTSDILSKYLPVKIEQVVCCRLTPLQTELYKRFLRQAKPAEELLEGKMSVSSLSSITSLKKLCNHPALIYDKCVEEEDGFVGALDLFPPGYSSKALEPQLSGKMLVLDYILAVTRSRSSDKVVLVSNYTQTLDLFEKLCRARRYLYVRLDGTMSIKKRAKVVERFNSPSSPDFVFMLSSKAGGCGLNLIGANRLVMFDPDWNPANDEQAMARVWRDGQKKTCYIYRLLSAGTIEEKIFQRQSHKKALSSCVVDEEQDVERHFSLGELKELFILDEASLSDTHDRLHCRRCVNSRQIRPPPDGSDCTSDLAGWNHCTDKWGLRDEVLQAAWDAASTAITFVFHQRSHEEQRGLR

[6] = P. falciparum Dd2 growth inhibitors, dose response, SYBR Green, cherry-picked samples (AID 1159567); assay type: functional, cell-based
Protein skinhead-1 = target: T7, Protein skinhead-1 (Caenorhabditis elegans, UniProt P34707); assay type: functional
T7 sequence (P34707 whole entry): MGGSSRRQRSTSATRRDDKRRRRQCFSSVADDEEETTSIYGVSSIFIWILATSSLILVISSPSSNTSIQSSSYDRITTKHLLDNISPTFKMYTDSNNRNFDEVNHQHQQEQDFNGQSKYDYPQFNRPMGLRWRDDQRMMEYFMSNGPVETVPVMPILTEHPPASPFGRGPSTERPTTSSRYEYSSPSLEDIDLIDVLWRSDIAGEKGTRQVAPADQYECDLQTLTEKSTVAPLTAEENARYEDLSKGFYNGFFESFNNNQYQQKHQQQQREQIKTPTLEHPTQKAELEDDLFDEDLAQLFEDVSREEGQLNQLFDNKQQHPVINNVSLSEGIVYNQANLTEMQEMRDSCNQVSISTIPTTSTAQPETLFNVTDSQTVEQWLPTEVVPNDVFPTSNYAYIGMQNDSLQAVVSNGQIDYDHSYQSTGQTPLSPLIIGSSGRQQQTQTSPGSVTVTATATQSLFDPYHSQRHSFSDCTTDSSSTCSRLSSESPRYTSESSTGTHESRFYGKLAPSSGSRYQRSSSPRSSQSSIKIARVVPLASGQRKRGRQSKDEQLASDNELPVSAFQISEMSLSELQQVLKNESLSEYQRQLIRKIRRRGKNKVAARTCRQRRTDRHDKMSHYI

[7] = target: Heat shock protein HSP 90-alpha (Homo sapiens, UniProt P07900); assay type: functional, organism-based

Nonstructural protein 1, sequence (Q194T2 whole entry): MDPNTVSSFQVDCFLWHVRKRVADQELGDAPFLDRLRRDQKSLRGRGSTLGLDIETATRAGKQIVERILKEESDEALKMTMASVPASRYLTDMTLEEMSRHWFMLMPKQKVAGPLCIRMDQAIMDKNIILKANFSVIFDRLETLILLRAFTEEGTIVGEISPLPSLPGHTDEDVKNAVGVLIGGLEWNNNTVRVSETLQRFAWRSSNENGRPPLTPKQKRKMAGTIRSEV
Large T antigen, sequence (P03070 whole entry): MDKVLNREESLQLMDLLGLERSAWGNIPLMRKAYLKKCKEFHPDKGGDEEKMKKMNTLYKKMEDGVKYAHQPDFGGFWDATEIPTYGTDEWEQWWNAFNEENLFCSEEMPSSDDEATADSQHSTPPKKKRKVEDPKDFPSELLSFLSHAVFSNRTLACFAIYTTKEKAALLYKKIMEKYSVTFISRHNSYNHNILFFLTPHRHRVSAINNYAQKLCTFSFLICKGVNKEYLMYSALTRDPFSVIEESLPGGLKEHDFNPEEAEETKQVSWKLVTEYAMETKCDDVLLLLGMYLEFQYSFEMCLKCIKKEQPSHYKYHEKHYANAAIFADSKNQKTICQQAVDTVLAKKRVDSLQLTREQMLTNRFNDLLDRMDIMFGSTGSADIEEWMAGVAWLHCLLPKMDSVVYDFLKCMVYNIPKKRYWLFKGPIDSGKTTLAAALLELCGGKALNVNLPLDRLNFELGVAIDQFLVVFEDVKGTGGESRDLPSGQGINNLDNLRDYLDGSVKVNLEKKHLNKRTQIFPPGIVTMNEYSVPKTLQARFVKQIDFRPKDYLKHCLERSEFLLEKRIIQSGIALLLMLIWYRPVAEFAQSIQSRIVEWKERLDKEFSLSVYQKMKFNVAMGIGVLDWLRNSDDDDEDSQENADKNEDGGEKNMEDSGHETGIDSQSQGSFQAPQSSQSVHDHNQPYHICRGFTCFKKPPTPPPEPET

CN1CCN(c2nc(Nc3ccc(O)cc3)nc3ccccc23)CC1
IC50 (Large T antigen): 8.58 µM (active)
AC50 [1]: 5.21 µM (active)

N#CC1=C(N)Oc2[nH]nc(-c3ccc(F)cc3)c2C1c1cccc(OC(=O)N2CCOCC2)c1 (stereo not drawn)
AC50 [2]: 6.74 µM (active)
EC50 (Protein RecA): 1.29 µM (active)

Nc1nonc1-n1nnc(C(=O)N/N=C/c2ccccc2O)c1CN1CCCC1
AC50 (INS1): 5.79 µM (active)
IC50 (Nonstructural protein 1): 11.4 µM (active)

N#CCCN(C(=O)CCl)c1cccc(Cl)c1
AC50 [2]: 78.4 µM (active)
EC50 (Protein RecA): 8.64 µM (active)

c1cncc(CNc2ncnc3sc4c(c23)CCCC4)c1
AC50 [2]: > 380 µM (inactive)
EC50 (Protein RecA): > 380 µM (inactive)

CN(C)c1ccc(NC(=O)CN2CCC(NC(=O)C3CCCCC3)CC2)cc1
IC50 [3]: > 20 µM (inactive)
AC50 [1]: 14.8 µM (active)

COc1ccc(Nc2cc(C)nc3ccc(OC)cc23)cc1
EC50 [4]: 4.73 µM (active)
AC50 [5]: 20.5 µM (active)
AC50 [1]: 15 µM (active)

CN1c2ccc(-c3ccccc3)cc2[C@@H]2[C@@H](CCN2C(=O)c2ccccc2)[C@H]1CO
AC50 [6]: 8.29 µM (active)

O=C(C[C@H]1CC[C@@H]2[C@H](COC[C@H](O)CN2Cc2cc(F)ccc2F)O1)N[C@@H]1CCN(Cc2ccccc2)C1
AC50 [6]: 7.42 µM (active)

O=C(CSc1n[nH]c(-c2ccccn2)n1)Nc1ccccc1F
IC50 (Nonstructural protein 1): 7.23 µM (active)

COc1cc2c(cc1OC)-c1cc3ccc(OC)c(OC)c3c[n+]1CC2 [PALMATINE CHLORIDE]
AC50 [1]: 5.19 µM (active)

CN(C)CCNC(=O)c1cccc(-c2cnc3c(NC=O)cc(-c4ccc(S(C)(=O)=O)cc4)cn23)c1
AC50 [5]: 24.1 µM (active)
AC50 [1]: 5.29 µM (active)

Cc1ccc(-n2nc(C)c3c2OC(N)=C(C#N)C3c2ccoc2)cc1 (stereo not drawn)
AC50 [2]: 5.41 µM (active)
EC50 (Protein RecA): 2.56 µM (active)

CC(=O)N1/C(=C/c2ccc(N(C)C)cc2)C(=O)c2ccccc21
IC50 (Protein skinhead-1): 76.9 µM (inactive)
IC50 (Nonstructural protein 1): 16.7 µM (active)

CCOc1ccccc1-c1c2cc(O)c(=O)cc-2oc2cc(O)c(O)cc12
AC50 [7]: 6.24 µM (active)
IC50 (Nonstructural protein 1): 28.1 µM (active)

O=C(NN=Cc1cccc([N+](=O)[O-])c1)c1cc[n+](CCO)cc1
AC50 [1]: 14.1 µM (active)
